From patent US5474757A, “Prevention of acetaminophen overdose toxicity with organosulfur compounds” (priority 1992, dated 1995)

Columns and labels:
P-450 2E1 [1] = details: isolated rat liver microsomes; cited from earlier work
[2] = system: hepatotoxicity of N-nitrosodimethylamine; details: pre-treatment of rats; cited from earlier work
P-450 2E1 [3] = details: treatment of rats; cited from earlier work
[4] = system: carbon tetrachloride hepatotoxicity; details: cited from earlier work
[5] = system: 1,2-dimethylhydrazine-induced hepatotoxicity and carcinogenesis; details: rats; cited from earlier work
[6] = system: p-nitrophenol hydroxylase; details: isolated rat liver microsomes; cited from earlier work
[7] = system: acetaminophen-induced hepatotoxicity; experiment: Protective effect against acetaminophen overdose in rats (serum GPT, LDH, liver damage); type: in vivo, rat (male Fisher 344)
Method: Brady et al., "Effect of […] […] Biochem. […] Extent of tissue damage was determined using a […]-6 Image Analysis System (Advanced Imaging Concepts, Inc.). […] All determinations were made without knowledge of treatment group. […] All experiments were replicated at least once.

[8] = system: acetaminophen-induced hepatotoxicity; experiment: animal or person; details: for GPT / LDH / Survival / Extent of liver damage: 25 mg/kg oral
Text: Blood samples were obtained from the jugular vein of CO2 -anesthetizedanimals. The blood was allowed to clot at room temperature and serum was separated by centrifugation. […] Biochem. Biophys.
Randomly-selected samples of the major hepatic lobe were fixed in 10% buffered formalin for histological evaluation. Samples were subsequently embedded in Paraplast (Fisher Scientific) and sectioned at 6 μm on a rotary microtome. Tissue sections were stained with hematoxylin-eosine-phloxine for examination. Extent of tissue damage was determined using a Presage CV-6 Image Analysis System (Advanced Imaging Concepts, Inc.). Images of randomly-selected slides (3 slides/animal, 2-3 animals/group) containing full cross sections of the major hepatic lobe were projected onto a computer screen and the image captured. The areas of damage were then outlined on the screen and the areas quantated using interactive software. The area of damage was shown as a percentage of the total hepatic area for each section. All determinations were made without knowledge of treatment group.
Data were analyzed by the Newman-Keuls multiple comparison procedure on the rank score analysis.
All experiments were replicated at least once.
As a Comparative Example, 300 mg/kg N-acetylcysteine was also administered immediately after administration of 0.2 g/kg acetaminophen.
As a Comparative Example, 300 mg/kg N-acetylcysteine was also administered 1 hour after administration of 0.2 g/kg acetaminophen.

[9] = 50 mg/kg oral, 1 hour after APAP 0.4 g/kg, mean ± SD of five rats
[10] = immediately (0 min) after APAP 0.2 g/kg

C=CCSCC=C [DAS, diallyl sulfide]
inhibition of P-450 2E1-catalyzed NDMA demethylase (P-450 2E1 [1]): competitively | inhibition of hepatotoxicity of N-nitrosodimethylamine [2]: inhibited the hepatotoxicity | liver microsomal P-450 2E1-dependent (NDMA demethylase) activity (P-450 2E1 [3]): decreased | inhibition of hepatotoxicity of CCl4 ([4]; pre-treatment of rats): inhibited the hepatotoxicity | protection against carbon tetrachloride hepatotoxicity ([4]; rat, in vivo): protect toxicity associated with carbon tetrachloride hepatotoxicity | protection against 1,2-dimethylhydrazine-induced hepatotoxicity and carcinogenesis [5]: protect toxicity | inhibition of p-nitrophenol hydroxylase [6]: competitively | Extent of liver damage ([7]; 50 mg/kg oral, 1 hour after APAP 0.4 g/kg): 5-13% | GPT [7, 9]: 70 ± 13 U/L | LDH [7, 9]: 220 ± 82 U/L | protection against hepatotoxicity ([7]; 50 mg/kg, 1 hr after APAP, rats): prevented the elevation of serum GPT and LDH levels, but did not completely prevent liver damage | minimal effective dose ([7]; Rattus norvegicus, rats, read-out: low dose at which protective effect was demonstrated): 5 mg/kg | GPT ([8]; 20 min after APAP 0.2 g/kg): 158 ± 41 U/L | LDH ([8]; 20 min after APAP 0.2 g/kg): 2374 ± 3533 U/L | Survival ([8]; 20 min after APAP 0.2 g/kg): 5/5 | Extent of liver damage ([8]; 1 hour after APAP 0.2 g/kg): 16-39% | GPT ([8]; 1 hour after APAP 0.2 g/kg): 179 ± 2 U/L | LDH ([8]; 1 hour after APAP 0.2 g/kg): 15609 ± 7143 U/L | Survival ([8]; 1 hour after APAP 0.2 g/kg): 3/5 | Extent of liver damage [8, 10]: 8-17% | GPT [8, 10]: 143 ± 50 U/L | LDH [8, 10]: 1899 ± 1724 U/L | Survival [8, 10]: 5/5 | protection against acetaminophen toxicity ([8]; 25 mg/kg, immediately after acetaminophen, mice): although preventing the elevation of the LDH level, only partially prevented liver damage and had little or no effect on the elevated serum GPT level | minimal effective dose ([8]; Mus musculus, read-out: low dose at which protective effect was demonstrated): 5 mg/kg
